Measured values reported in patent publication US11578087B2, “Oxaborole esters and uses thereof” (priority 2016, dated 2023).

Assays:
[1] = system: IL3000 T. congolense (drug sensitive) strain; assay: In vitro Alamar Blue 72 h drug sensitivity assay for T. congolense; format: cell-based, Trypanosoma congolense; settings: Trypanosoma congolense, 72 h, bloodstream form, 69 h + 3 h Resazurin, 34° C., read-out: IC50: I Org. Growth T. congolense 3 d
Experimental: Example 252. In Vitro Alamar Blue 72 h Drug Sensitivity Assay for T. congolense
Compounds were tested in vitro for chemotherapeutic potency against the IL3000 T. congolense (drug sensitive) strain, using the Alamar Blue assay with several modifications. Test compounds were prepared as 10 mg/mL DMSO stocks for each assay run. Compounds were assayed in at least three separate, independent test runs and an 11-point dilution curve was used to determine the IC50 values. Bloodstream form trypanosomes were supported in HMI media containing 20% bovine serum and were incubated with test compounds for 69 h at 34° C. in a humidified atmosphere containing 5% CO2. Thereafter, 10 μL of Resazurin dye (12.5 mg in 100 mL of phosphate buffered saline, Sigma-Aldrich, Buchs, Switzerland) were added for an additional 3 h. Plates were then read using a fluorescent plate reader (Spectramax, Gemini XS, Bucher Biotec, Basel, Switzerland) using an excitation wavelength of 536 nm and an emission wavelength of 588 nm. Data points were averaged to generate sigmoidal dose-response curves and IC50 values were determined using Softmax Pro 5.2 software.

[2] = system: T. cruzi amastigote (Td Tomato-modified) in Vero cells; assay: In vitro IC50 measurement of T. cruzi amastigote killing using Td Tomato-modified T. cruzi; format: cell-based; settings: Trypanosoma cruzi, 72 h, fluorescence, read-out: IC50: I Org. amastigote Growth T. cruzi 3 d
Experimental: Example 254. In Vitro IC50 Measurement of T. cruzi Amastigote Killing Using Td Tomato-Modified T. cruzi
The T. cruzi parasites used in this assay were genetically modified to express Td Tomato fluorescent protein. Vero cells (African green monkey kidney epithelial cells) were harvested from continuous cultures using trypsin and added to the inner 60 wells of 96-well Greiner Bio One plates (plate catalog #655090) at 200 ul/well of […]. Cells were allowed to adhere for 1 h before infection with T. cruzi. T. cruzi for infection were harvested from previously-infected Vero cells, washed, pelleted and resuspended at 5×10^6/mL. 50 uL of parasites were added to each well containing Vero cells. Compounds were prepared from 5 mM stock concentrations in DMSO to final concentrations in wells ranging from 5 uM to 5 nM. Wells were provided for negative controls, lacking compounds. Plates were placed into a 37° C. incubator for 20 min, then a “Day 0” reading was taken on a Synergy H4 plate reader to record initial fluorescence levels, at 544 (excitation) and 612 nm (emission). 96-well plates were placed in Tupperware containers with wet paper towels and incubated at 37° C. incubator for 72 h. After 72 h plates were reread (Day 3 reading) and data analyzed using Excel and/or Graphpad software. Day 0 fluorescence was subtracted from Day 3 to remove input parasite fluorescence. Growth curves are generated and 50% and 90% inhibitory concentrations are determined by nonlinear regression analysis.

Structure (SMILES) | IC50 [1] | IC50 [2]
Cc1c(C(=O)N[C@H](C(=O)OCc2cccc(CN3CCN(C)CC3)c2)C(C)C)ccc2c1B(O)OC2 [Example 6-082, 3-((4-Methylpiperazin-1-yl)methyl)benzyl (1-hydroxy-7-methyl-1,3-dihydrobenzo[c][1,2]oxaborole-6-carbonyl)-L-valinate] | 0.51 to 9.99 nM | 21 to 999 nM
O=C(N[C@@H](CO)C(=O)OCc1ccccc1)c1ccc2c(c1)B(O)OC2 [Example 6-007, Benzyl (1-hydroxy-1,3-dihydrobenzo[c][1,2]oxaborole-6-carbonyl)-L-serinate] | 10 to 5000 nM | ≥ 1000 nM
Cc1c(C(=O)N[C@H](C(=O)OCc2cccc(CN3CCCC3)c2)C(C)C)ccc2c1B(O)OC2 [Example 6-113, 3-(Pyrrolidin-1-ylmethyl)benzyl (1-hydroxy-7-methyl-1,3-dihydrobenzo[c][1,2]oxaborole-6-carbonyl)-L-valinate] | < 0.5 nM | ≤ 20 nM
COCC1(COC(=O)[C@@H](NC(=O)c2ccc3c(c2C)B(O)OC3)C(C)C)CCOCC1 [Example 6-152, (4-(Methoxymethyl)tetrahydro-2H-pyran-4-yl)methyl (1-hydroxy-7-methyl-1,3-dihydrobenzo[c][1,2]oxaborole-6-carbonyl)-L-valinate] | < 0.5 nM | 21 to 999 nM
Cc1c(C(=O)N[C@H](C(=O)OCc2ccc(F)c(C(F)(F)F)c2)C(C)C)ccc2c1B(O)OC2 [Example 6-049, 4-Fluoro-3-(trifluoromethyl)benzyl (1-hydroxy-7-methyl-1,3-dihydrobenzo[c][1,2]oxaborole-6-carbonyl)-L-valinate] | < 0.5 nM | ≤ 20 nM
Cc1c(C(=O)N[C@H](C(=O)OCC2CCC(F)(F)CC2)C(C)C)ccc2c1B(O)OC2 [Example 6-154, (4,4-Difluorocyclohexyl)methyl (1-hydroxy-7-methyl-1,3-dihydrobenzo[c][1,2]oxaborole-6-carbonyl)-L-valinate] | < 0.5 nM | ≤ 20 nM
Cc1c(C(=O)N[C@H](C(=O)OCC(C)(C)O)C(C)C)ccc2c1B(O)OC2 [Example 6-211, 2-hydroxy-2-methylpropyl (1-hydroxy-7-methyl-1,3-dihydrobenzo[c][1,2]oxaborole-6-carbonyl)-L-valinate] | 0.51 to 9.99 nM | 21 to 999 nM
Cc1c(C(=O)N[C@H](C(=O)OCc2ccc(F)cc2)C2CCC2)ccc2c1B(O)OC2 [Example 6-059, 4-Fluorobenzyl (S)-2-cyclobutyl-2-(1-hydroxy-7-methyl-1,3-dihydrobenzo[c][1,2]oxaborole-6-carboxamido)acetate] | 0.51 to 9.99 nM | 21 to 999 nM
Cc1c(C(=O)N[C@H](C(=O)OCc2ccc(Cl)c(OCCN3CCOCC3)c2)C(C)C)ccc2c1B(O)OC2 [Example 6-167, 4-Chloro-3-(2-morpholinoethoxy)benzyl (1-hydroxy-7-methyl-1,3-dihydrobenzo[c][1,2]oxaborole-6-carbonyl)-L-valinate] | < 0.5 nM | ≤ 20 nM
Cc1c(C(=O)N[C@H](C(=O)OCc2nccc(C(F)(F)F)n2)C(C)C)ccc2c1B(O)OC2 [Example 6-203, (4-(trifluoromethyl)pyrimidin-2-yl)methyl (1-hydroxy-7-methyl-1,3-dihydrobenzo[c][1,2]oxaborole-6-carbonyl)-L-valinate] | < 0.5 nM | ≤ 20 nM
Cc1c(C(=O)N[C@H](C(=O)OCc2cccc(S(C)(=O)=O)c2)C(C)C)ccc2c1B(O)OC2 [Example 6-080, 3-(Methylsulfonyl)benzyl (1-hydroxy-7-methyl-1,3-dihydrobenzo[c][1,2]oxaborole-6-carbonyl)-L-valinate] | 0.51 to 9.99 nM | 21 to 999 nM
Cc1c(C(=O)N[C@H](C(=O)OCc2cccc(CN3CCNCC3)c2)C(C)C)ccc2c1B(O)OC2 [Example 6-117, 3-(Piperazin-1-ylmethyl)benzyl (1-hydroxy-7-methyl-1,3-dihydrobenzo[c][1,2]oxaborole-6-carbonyl)-L-valinate] | 10 to 5000 nM | ≥ 1000 nM
Cc1c(C(=O)N[C@H](C(=O)OC2CCC2)C(C)C)ccc2c1B(O)OC2 [Example 6-136, Cyclobutyl (1-hydroxy-7-methyl-1,3-dihydrobenzo[c][1,2]oxaborole-6-carbonyl)-L-valinate] | < 0.5 nM | ≤ 20 nM
C[C@H](NC(=O)c1ccc2c(c1)B(O)OC2)C(=O)O [Example 6-164, (1-Hydroxy-1,3-dihydrobenzo[c][1,2]oxaborole-6-carbonyl)-L-alanine] | 10 to 5000 nM | ≥ 1000 nM
Cc1c(C(=O)N[C@H](C(=O)OCCN2CCCOCC2)C(C)C)ccc2c1B(O)OC2 [Example 6-214, 2-(1,4-oxazepan-4-yl)ethyl (1-hydroxy-7-methyl-1,3-dihydrobenzo[c][1,2]oxaborole-6-carbonyl)-L-valinate] | 0.51 to 9.99 nM | ≥ 1000 nM
Cc1c(C(=O)N[C@H](C(=O)OCc2ccc(OC(F)(F)F)cc2)C(C)C)ccc2c1B(O)OC2 [Example 6-054, 4-Trifluoromethoxybenzyl (1-hydroxy-7-methyl-1,3-dihydrobenzo[c][1,2]oxaborole-6-carbonyl)-L-valinate] | < 0.5 nM | ≤ 20 nM
Cc1c(C(=O)N[C@H](C(=O)OCc2cccc(C#N)n2)C(C)C)ccc2c1B(O)OC2 [Example 6-189, (6-cyanopyridin-2-yl)methyl (1-hydroxy-7-methyl-1,3-dihydrobenzo [c][1,2]oxaborole-6-carbonyl)-L-valinate] | < 0.5 nM | ≤ 20 nM
Cc1c(C(=O)N[C@H](C(=O)OCc2ccc(Cl)cc2)C(C)C)ccc2c1B(O)OC2 [Example 6-040, 4-Chlorobenzyl (1-hydroxy-7-methyl-1,3-dihydrobenzo[c][1,2]oxaborole-6-carbonyl)-L-valinate] | < 0.5 nM | ≤ 20 nM
Cc1c(C(=O)NC2(C(=O)OCC3CCCC3)COC2)ccc2c1B(O)OC2 [Example 6-224, Cyclopentylmethyl 3-(1-hydroxy-7-methyl-1,3-dihydrobenzo[c][1,2]oxaborole-6-carboxamido)oxetane-3-carboxylate] | 0.51 to 9.99 nM | ≤ 20 nM
Cc1c(C(=O)N[C@H](C(=O)O[C@@H]2CCOC2)C(C)C)ccc2c1B(O)OC2 [Example 6-141, (R)-Tetrahydrofuran-3-yl (1-hydroxy-7-methyl-1,3-dihydrobenzo[c][1,2]oxaborole-6-carbonyl)-L-valinate] | < 0.5 nM | 21 to 999 nM
Cc1c(C(=O)N[C@H](C(=O)OCc2cc(F)c(F)c(F)c2)C(C)(C)O)ccc2c1B(O)OC2 [Example 6-101, 3,4,5-Trifluorobenzyl(S)-3-hydroxy-2-(1-hydroxy-7-methyl-1,3-dihydrobenzo[c][1,2]oxaborole-6-carboxamido)-3-methylbutanoate] | < 0.5 nM | ≤ 20 nM
Cc1c(C(=O)N[C@H](C(=O)OCc2ccc(F)cc2)[C@@H](C)OCc2ccccc2)ccc2c1B(O)OC2 [Example 6-077, 4-Fluorobenzyl O-benzyl-N-(1-hydroxy-7-methyl-1,3-dihydrobenzo[c][1,2]oxaborole-6-carbonyl)-L-threoninate] | 0.51 to 9.99 nM | ≤ 20 nM
Cc1c(C(=O)N[C@H](C(=O)OC2COC2)C(C)C)ccc2c1B(O)OC2 [Example 6-135, Oxetan-3-yl (1-hydroxy-7-methyl-1,3-dihydrobenzo[c][1,2]oxaborole-6-carbonyl)-L-valinate] | < 0.5 nM | 21 to 999 nM
Cc1c(C(=O)N[C@H](C(=O)OCc2ccncc2)C(C)C)ccc2c1B(O)OC2 [Example 6-190, Pyridin-4-ylmethyl (1-hydroxy-7-methyl-1,3-dihydrobenzo[c][1,2]oxaborole-6-carbonyl)-L-valinate] | 0.51 to 9.99 nM | 21 to 999 nM
Cc1c(C(=O)N[C@H](C(=O)OCc2ccc(C#N)cc2)C(C)C)ccc2c1B(O)OC2 [Example 6-044, 4-Cyanobenzyl (1-hydroxy-7-methyl-1,3-dihydrobenzo[c][1,2]oxaborole-6-carbonyl)-L-valinate] | < 0.5 nM | ≤ 20 nM
Cc1c(C(=O)N[C@H](C(=O)OCc2cccc(C#N)c2)C(C)C)ccc2c1B(O)OC2 [Example 6-047, 3-Cyanobenzyl (1-hydroxy-7-methyl-1,3-dihydrobenzo[c][1,2]oxaborole-6-carbonyl)-L-valinate] | < 0.5 nM | ≤ 20 nM
